Results taken from patent US20190358242A1, “COMPOSITIONS, KITS, AND METHODS TO INDUCE ACQUIRED CYTORESISTANCE USING STRESS PROTEIN INDUCERS” (FRED HUTCHINSON CANCER RESEARCH CENTER, priority 2017, published 2019).

Assays:
HO-1 mRNA = assay: Cardiac HO-1 mRNA (RT-PCR); type: in vivo, CD-1 mice
Method: Thirty-two mice were divided into 4 equal groups: (1) control mice; (2) mice treated with 1 mg of N-Mgb injection (as a bolus through the tail vein); (3) mice treated with […] of SnPP (via tail vein); and (4) mice treated with combined N-Mgb 1 SnPP. After either 4 hours (n=16) or 18 hours (n=16), the mice were deeply anesthetized with pentobarbital (50 mg/kg), the abdomen was opened through a midline abdominal incision, and the kidneys were removed. To determine potential effects on extrarenal organs, a liver lobe and the heart were also removed. The tissues were iced and then extracted for protein and RNA (RNeasy Plus Mini; Qiagen, Valencia, Calif.) and subjected to enzyme linked immunosorbent assay (ELISA) and reverse transcriptase polymerase chain reaction (RT-PCR) for HO-1, haptoglobin, and IL-10 protein and messenger RNAs (mRNAs). Zager et al. J Am Soc Nephrol 2014; 25:998-1012; Zager et al. Am J Physiol 2012; 303:F139-48. As an assessment of renal function, control mice and the 18 hour after N-Mgb+SnPP-treated mice had blood urea nitrogen (BUN) and plasma creatinine levels measured. Additionally, transverse 10% formalin fixed kidney sections ([…]) were cut and stained with hematoxylin and eosin (H&E) and periodic acid Schiff (PAS) to further assess potential injury.

[1] = tested on: glycerol model of rhabdomyolysis-induced AKI; assay: Glycerol model of rhabdomyolysis-induced AKI; type: in vivo, CD-1 mice; settings: IV pretreatment 18 h before glycerol; 18 hours after glycerol
Method: Assessments of cytoresistance. Glycerol model of rhabdomyolysis-induced AKI. Twenty mice were divided into 4 equal groups (controls, mice treated with N-Mgb, SnPP, and mice treated with N-Mgb+SnPP tail vein injections) as described previously. 18 hours later, the mice were briefly anesthetized with isoflurane and immediately injected with 9 mL/kg of 50% glycerol, administered in equally divided doses into each hind limb. At 18 hours after glycerol injection, the mice were anesthetized with pentobarbital, the abdomen was opened, a blood sample for BUN and creatinine assessments was obtained from the vena cava, and the kidneys were resected. The control post-glycerol group and the N-Mgb+SnPP-pretreated glycerol group had kidney sections stained with H&E.
To assess whether the previously determined plasma and kidney HO-1 and haptoglobin levels correlated with degrees of cytoresistance, additional mice were injected with 0, 2.5, or 5 mg of N-Mgb […] of SnPP (n=3 mice per group). Eighteen hours later, all mice were subjected to the glycerol AKI model as described previously. Severities of AKI were determined 18 hours after glycerol injection by BUN and plasma creatinine analyses.
Calculations and statistics. All values are given as the mean […] standard error of the mean. Statistical comparisons were made by unpaired Student's t test. […]

Compound: C=Cc1c2[n-]c(c1C)/C=c1\[n-]/c(c(C)c1C=C)=C\c1[n-]c(c(CCC(=O)O)c1C)/C=c1\[n-]c(c(C)c1CCC(=O)O)=C2.[Sn+4] [SnPP, tin protoporphyrin]
- Cardiac mRNA HO-1 (HO-1 mRNA; 4 h after IV injection): 0.14 ± 0.01
- Cardiac mRNA HO-1 (HO-1 mRNA; 18 h after IV injection): 0.09 ± 0.03
- Protection against glycerol-induced AKI judged by BUN/creatinine levels [1]: virtually no effect
